Experimental data taken from patent publication US20230303497A1, “BENZYLAMINE OR BENZYL ALCOHOL DERIVATIVE AND USES THEREOF” (CHENGDU HYPERWAY PHARMACEUTICALS CO., LTD, priority 2020, published 2023).
Where two headings read alike, the source gives them in different places.

Key:
[1] = In vivo pharmacokinetic testing of compounds in rats; conditions: male SD rats, single oral dose 100 mg/kg, plasma, VX-150 dosed as prodrug, active form analysed
Method: Test Case 4: In Vivo Pharmacokinetic Testing of Compounds in Rats
All SD rats in the test are male and are purchased from Shanghai Sippe-Bk Lab Animal Co., Ltd. Each compound is administered orally (100 mg/kg, 3 rats per group) at single dose to SD rats for pharmacokinetic study. The solutions are prepared on the same day of administration, e.g., the tested compound is suspended in 5% DMSO+95% saline, get vortexed for 2 min, and sonicated for 5 min to prepare a drug delivery system. The animals are fasted for 10-14 hours before oral administration, and resumed food 4 hours after administration. After oral administration by gavage in SD rats, pharmacokinetic samples are collected from jugular vein at the following time points: 0, 15 min, 30 min, 1 h, 2 h, 4 h, 6 h, 8 h and 24 h. Three whole blood samples are collected at each time point in a volume of about 0.2 mL and anticoagulated using sodium heparin. Blood samples are placed on ice immediately after collection and plasma is separated by centrifugation within 1 h (centrifugation conditions: 6800 rpm, 6 min, 2-8° C.). The collected plasma is stored in a −80° C. refrigerator prior to analysis.
In pharmacokinetic tests in rat, the control compound VX-150 is a prodrug (WO2015089361, compound 9), after administration, analysis is performed to test its active form (WO2014120808, compound 10). The aforementioned in vitro pharmacological tests are performed using the active ingredient (WO2014120808, compound 10).

hERG ion channels = hERG ion channels (Homo sapiens (Human), UniProt Q12809); assay: Inhibition activity test on hERG ion channels in HEK293 cells (cardiac safety, patch clamp)
Chain of hERG ion channels (Q12809 whole entry): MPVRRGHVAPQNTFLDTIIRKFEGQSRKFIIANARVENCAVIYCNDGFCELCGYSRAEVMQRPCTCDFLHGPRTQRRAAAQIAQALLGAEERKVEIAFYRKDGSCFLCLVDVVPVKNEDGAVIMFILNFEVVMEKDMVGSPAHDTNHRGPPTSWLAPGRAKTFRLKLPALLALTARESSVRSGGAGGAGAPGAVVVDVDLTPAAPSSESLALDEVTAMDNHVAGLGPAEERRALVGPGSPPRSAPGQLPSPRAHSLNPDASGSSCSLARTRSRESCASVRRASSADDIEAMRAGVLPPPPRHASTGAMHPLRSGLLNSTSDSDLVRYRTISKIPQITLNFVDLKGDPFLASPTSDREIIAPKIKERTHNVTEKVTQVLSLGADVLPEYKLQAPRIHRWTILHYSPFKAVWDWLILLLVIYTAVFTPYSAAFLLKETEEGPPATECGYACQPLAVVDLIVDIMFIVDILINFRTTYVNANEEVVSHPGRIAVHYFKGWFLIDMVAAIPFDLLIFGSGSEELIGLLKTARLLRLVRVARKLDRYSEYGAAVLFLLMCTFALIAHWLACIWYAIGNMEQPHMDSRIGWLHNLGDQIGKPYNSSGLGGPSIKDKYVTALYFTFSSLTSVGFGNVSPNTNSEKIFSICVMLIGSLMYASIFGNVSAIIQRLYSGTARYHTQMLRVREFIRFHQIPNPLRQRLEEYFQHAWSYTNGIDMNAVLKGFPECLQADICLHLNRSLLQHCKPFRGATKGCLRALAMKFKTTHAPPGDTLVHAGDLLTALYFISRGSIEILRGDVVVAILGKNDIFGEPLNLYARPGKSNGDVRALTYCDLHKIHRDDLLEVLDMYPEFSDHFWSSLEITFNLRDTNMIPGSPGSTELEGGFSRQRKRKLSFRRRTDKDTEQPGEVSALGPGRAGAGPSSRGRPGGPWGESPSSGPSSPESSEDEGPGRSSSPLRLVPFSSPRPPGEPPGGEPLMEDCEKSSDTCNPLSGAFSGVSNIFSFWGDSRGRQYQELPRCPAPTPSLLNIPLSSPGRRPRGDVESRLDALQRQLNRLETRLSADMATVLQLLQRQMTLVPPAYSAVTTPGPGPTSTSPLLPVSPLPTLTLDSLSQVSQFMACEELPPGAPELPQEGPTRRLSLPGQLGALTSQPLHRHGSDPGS
Method: This experiment is used as a cardiac safety test of compound.
The reagents are purchased from Sigma (St. Louis, MO) except NaOH and KOH for acid-base titration. Final concentrations of tested solutions are prepared on the testing day and dissolved in extracellular fluid. […] All the test solutions and the control solutions contain 0.3% DMSO. Intracellular fluid (mM) contains: K Aspartate, 130; MgCl2, 5; EGTA 5; HEPES, 10; Tris-ATP 4; pH 7.2 (KOH titration).
Cells: all experiments is performed at room temperature. Each cell itself is taken as the corresponding control.
Compounds are all perfused using a perfusion system that utilizes the gravity. At least two cells are tested per concentration. After current stabilization (or 5 minutes), the change in current magnitude before and after the use of the compound is compared to calculate the blocking effect of the compound.
The method of operation is the same as that of the test compound.
Electrophysiology: Transfer the Cells to the perfusion tank and perfuse with extracellular fluid. The intracellular fluid (mM) contains: K Aspartate, 130; MgCl2, 5; EGTA 5; HEPES, 10; Tris-ATP 4; pH 7.2 (KOH titration). The intracellular fluid is stored in small quantities in portions in a −80° C. refrigerator, and melt on the day of the experiment. Electrodes are drawn with PC-10 (Narishige, Japan). Recording is performed with whole-cell diaphragm clamp. Noise is filtered with one-fifth of the sampling frequency.
This process is repeated every 20 seconds. The hERG tail current is the pure hERG current. The maximum tail current triggered by the second square wave is detected, and when the current is stabilized, the test compound is perfused. The strength of the block is calculated when the response is stabilized.

NaV1.1 = NaV1.1 (Homo sapiens (Human), UniProt P35498); assay: Selectivity test for Nav ion channel subtypes: NaV1.1 (HEK293, patch clamp); type: cell-based; conditions: 1 uM; HEK293 cells
Method: (§1) Test Case 3: Compound Selectivity Test for Nav Ion Channel Subtypes
(§2) The aim of this test is to investigate effect of compounds on human Na ion channel cells expressed in steady-state (NaV1.1, NaV1.3, NaV1.4, NaV1.5, NaV1.6, NaV1.7). After Na ion currents is stabilized, the effect can be obtained by comparing the magnitude of Na channel currents before and after the application of the compounds.
(§3) The test compound is stored at a concentration of 9 mM in dimethyl sulfoxide (DMSO), and on the day of testing, dissolve in extracellular solution, then prepare to a screening concentration of 1 uM.
(§4) All experiments are performed at room temperature. Each cell itself is taken as the corresponding control.
(§5) At least one cell is tested per concentration.
(§6) HEK293 cells steadily expressing NaV1.1-, NaV1.3-, NaV1.4-, NaV1.5-, NaV1.6-ion channels; CHO cells expressing steadily NaV1.7 ion channel.
(§7) The intracellular fluid (mM) is: Aspartic acid, 140; MgCl2, 2; EGTA 11; HEPES, 10; pH 7.2 (CsOH titration). […] Electrodes are drawn with PC-10 (Narishige, Japan). Recording is performed with whole-cell diaphragm clamp.
(§8) Cells are clamped at −80 mV and then depolarized to −10 mV with a sustained 10 ms square wave to obtain Na ion channel currents (see the FIGURE). This process is repeated every 5 seconds. […] The strength of the block is calculated after the response is stabilized.

NaV1.6 = NaV1.6 (Homo sapiens (Human), UniProt Q9UQD0); assay: Selectivity test for Nav ion channel subtypes: NaV1.6 (HEK293, patch clamp); type: cell-based; conditions: 1 uM; HEK293 cells
Chain of NaV1.6 (Q9UQD0 whole entry): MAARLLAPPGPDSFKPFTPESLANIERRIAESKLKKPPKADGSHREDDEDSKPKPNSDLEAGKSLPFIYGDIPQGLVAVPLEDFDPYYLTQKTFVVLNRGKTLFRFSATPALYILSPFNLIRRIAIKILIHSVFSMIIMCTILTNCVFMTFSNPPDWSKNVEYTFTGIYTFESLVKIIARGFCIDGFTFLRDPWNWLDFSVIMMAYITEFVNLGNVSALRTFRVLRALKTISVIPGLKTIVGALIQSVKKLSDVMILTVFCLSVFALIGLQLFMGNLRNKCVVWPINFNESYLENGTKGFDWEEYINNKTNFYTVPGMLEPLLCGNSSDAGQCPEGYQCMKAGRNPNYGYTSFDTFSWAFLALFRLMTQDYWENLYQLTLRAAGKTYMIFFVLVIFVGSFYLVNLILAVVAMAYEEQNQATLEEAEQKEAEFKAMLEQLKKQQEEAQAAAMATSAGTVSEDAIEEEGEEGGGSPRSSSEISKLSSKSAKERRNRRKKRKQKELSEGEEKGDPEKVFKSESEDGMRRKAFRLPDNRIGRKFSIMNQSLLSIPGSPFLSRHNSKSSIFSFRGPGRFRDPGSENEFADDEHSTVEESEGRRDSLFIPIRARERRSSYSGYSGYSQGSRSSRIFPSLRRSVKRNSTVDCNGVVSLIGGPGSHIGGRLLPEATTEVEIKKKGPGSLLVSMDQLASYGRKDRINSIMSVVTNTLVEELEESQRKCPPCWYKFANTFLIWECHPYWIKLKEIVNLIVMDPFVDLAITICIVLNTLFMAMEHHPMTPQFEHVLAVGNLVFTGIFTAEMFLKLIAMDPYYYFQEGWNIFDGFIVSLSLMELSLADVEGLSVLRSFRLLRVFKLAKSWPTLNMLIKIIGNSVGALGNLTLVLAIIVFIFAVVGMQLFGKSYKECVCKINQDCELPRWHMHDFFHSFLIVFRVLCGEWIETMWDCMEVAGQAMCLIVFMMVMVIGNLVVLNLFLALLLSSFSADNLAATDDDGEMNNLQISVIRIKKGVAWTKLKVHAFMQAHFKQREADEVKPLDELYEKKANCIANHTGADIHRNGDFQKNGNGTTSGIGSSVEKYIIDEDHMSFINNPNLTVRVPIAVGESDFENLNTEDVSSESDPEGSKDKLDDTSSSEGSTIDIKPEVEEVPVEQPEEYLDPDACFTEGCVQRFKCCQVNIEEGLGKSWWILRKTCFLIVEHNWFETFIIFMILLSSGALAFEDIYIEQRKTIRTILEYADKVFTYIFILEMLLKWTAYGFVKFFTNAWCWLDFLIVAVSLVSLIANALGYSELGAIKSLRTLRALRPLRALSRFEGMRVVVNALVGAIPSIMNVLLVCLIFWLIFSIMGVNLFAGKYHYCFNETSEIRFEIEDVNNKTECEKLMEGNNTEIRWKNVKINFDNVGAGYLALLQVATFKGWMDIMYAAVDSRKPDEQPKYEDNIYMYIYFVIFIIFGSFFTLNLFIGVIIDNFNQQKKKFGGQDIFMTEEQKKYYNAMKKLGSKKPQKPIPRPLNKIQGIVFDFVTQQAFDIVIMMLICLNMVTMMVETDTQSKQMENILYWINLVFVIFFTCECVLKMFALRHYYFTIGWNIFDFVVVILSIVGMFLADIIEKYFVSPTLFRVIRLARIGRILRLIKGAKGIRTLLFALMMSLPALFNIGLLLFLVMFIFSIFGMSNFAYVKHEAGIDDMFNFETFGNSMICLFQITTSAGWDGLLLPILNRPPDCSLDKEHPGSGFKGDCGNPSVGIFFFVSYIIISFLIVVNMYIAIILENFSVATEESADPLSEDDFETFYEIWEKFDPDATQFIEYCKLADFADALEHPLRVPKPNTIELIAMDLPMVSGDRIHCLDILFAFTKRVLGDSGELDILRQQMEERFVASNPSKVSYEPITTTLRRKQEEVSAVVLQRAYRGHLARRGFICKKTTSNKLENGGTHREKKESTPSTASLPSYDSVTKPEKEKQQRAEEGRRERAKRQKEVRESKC
Method: as §1, §2, §3, §4, §5, §6, §7, §8

NaV1.7 = NaV1.7 (Homo sapiens (Human), UniProt Q15858); assay: Selectivity test for Nav ion channel subtypes: NaV1.7 (CHO cells, patch clamp); type: cell-based; conditions: 1 uM
Method: as §1, §2, §3, §4, §5, §6, §7, §8

human NaV1.8 ion channel = human NaV1.8 ion channel (Homo sapiens (Human), UniProt Q9Y5Y9); assay: Compound inhibition activity on human NaV1.8 ion channel in HEK293 cells (whole-cell patch clamp); type: cell-based; conditions: 100 nm concentration, HEK293 cells, resting protocol
NaV1.5 = NaV1.5 (Homo sapiens (Human), UniProt Q14524); assay: Selectivity test for Nav ion channel subtypes: NaV1.5 (HEK293, patch clamp); type: cell-based; conditions: 1 uM; HEK293 cells
Chain of NaV1.5 (Q14524 whole entry): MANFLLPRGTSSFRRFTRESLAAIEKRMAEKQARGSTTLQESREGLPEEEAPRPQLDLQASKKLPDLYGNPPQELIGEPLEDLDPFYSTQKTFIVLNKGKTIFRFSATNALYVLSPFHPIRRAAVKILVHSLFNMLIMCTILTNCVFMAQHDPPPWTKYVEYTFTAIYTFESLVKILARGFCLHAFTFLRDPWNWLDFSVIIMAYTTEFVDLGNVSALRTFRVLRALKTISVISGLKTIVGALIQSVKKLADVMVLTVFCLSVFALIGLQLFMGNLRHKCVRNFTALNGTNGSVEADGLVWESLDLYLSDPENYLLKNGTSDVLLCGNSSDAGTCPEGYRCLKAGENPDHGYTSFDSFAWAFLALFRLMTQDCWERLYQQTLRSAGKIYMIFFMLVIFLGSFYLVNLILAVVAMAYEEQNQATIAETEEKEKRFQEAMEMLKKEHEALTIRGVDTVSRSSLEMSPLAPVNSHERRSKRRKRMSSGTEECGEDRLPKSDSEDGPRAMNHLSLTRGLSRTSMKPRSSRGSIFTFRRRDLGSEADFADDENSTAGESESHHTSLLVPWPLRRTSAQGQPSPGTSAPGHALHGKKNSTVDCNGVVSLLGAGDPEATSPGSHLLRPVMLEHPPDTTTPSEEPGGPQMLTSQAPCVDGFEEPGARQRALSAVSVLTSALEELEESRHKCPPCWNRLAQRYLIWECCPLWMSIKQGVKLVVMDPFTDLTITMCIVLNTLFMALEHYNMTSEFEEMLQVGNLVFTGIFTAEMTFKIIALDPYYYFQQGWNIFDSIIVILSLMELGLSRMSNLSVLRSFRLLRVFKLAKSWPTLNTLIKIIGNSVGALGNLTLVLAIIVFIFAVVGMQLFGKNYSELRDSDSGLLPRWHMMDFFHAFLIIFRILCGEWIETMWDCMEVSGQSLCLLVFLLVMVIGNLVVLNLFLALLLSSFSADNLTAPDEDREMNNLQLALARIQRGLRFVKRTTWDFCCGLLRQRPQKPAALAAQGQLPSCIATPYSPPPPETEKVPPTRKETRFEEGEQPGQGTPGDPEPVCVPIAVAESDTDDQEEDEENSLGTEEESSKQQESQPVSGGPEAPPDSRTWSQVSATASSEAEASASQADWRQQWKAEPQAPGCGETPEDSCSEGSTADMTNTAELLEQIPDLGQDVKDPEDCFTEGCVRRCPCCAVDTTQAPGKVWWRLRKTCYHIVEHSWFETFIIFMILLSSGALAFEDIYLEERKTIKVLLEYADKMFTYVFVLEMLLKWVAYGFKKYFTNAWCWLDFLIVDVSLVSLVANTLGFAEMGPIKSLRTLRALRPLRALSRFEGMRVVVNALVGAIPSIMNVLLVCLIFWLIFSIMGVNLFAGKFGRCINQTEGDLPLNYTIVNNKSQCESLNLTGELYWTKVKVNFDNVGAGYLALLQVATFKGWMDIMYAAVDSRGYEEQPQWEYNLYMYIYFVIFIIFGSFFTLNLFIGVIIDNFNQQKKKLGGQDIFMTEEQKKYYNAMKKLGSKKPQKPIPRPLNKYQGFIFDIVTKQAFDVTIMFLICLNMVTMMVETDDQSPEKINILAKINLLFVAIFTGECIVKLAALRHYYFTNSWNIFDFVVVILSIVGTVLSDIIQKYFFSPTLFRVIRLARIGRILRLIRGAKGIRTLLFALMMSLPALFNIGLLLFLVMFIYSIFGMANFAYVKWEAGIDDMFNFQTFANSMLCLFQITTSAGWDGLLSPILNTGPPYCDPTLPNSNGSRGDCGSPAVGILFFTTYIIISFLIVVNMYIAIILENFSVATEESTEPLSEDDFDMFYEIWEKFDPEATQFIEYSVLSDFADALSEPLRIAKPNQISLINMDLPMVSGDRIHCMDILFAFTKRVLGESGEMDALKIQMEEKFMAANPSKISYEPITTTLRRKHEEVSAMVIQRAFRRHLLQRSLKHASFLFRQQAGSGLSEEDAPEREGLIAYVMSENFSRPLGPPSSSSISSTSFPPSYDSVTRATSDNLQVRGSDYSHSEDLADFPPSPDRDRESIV
Method: as §1, §2, §3, §4, §5, §6, §7, §8

NaV1.4 = NaV1.4 (Homo sapiens (Human), UniProt P35499); assay: Selectivity test for Nav ion channel subtypes: NaV1.4 (HEK293, patch clamp); type: cell-based; conditions: 1 uM; HEK293 cells
Method: as §1, §2, §3, §4, §5, §6, §7, §8

NaV1.3 = NaV1.3 (Homo sapiens (Human), UniProt Q9NY46); assay: Selectivity test for Nav ion channel subtypes: NaV1.3 (HEK293, patch clamp); type: cell-based; conditions: 1 uM; HEK293 cells
Method: as §1, §2, §3, §4, §5, §6, §7, §8

[2] = read-out: Inhibition ratio of compounds against Nav1.8 (Activity of inhibition)
[3] = read-out: Inhibition ratio of Nav1.8 (Activity of inhibition)

Row | Compound | half-life ([1]; rat) [min] | AUC ([1]; rat, read-out: AUC) [ng·h/mL] | Cmax ([1]; rat, read-out: Cmax) [ng/mL] | Inhibition ratio on Nav1.1 (NaV1.1) [%] | Inhibition ratio on Nav1.6 (NaV1.6) [%] | Inhibition ratio on Nav1.7 (NaV1.7) [%] | inhibition at 0.1 µM (human NaV1.8 ion channel; [2]) [%] | Inhibition ratio on Nav1.4 (NaV1.4) [%] | Inhibition ratio on Nav1.3 (NaV1.3) [%] | inhibition at 0.1 µM (human NaV1.8 ion channel; [3]) [%] | AUC [1] [ng·h/mL] | Cmax [1] [ng/mL] | T1/2 [1] [h] | Inhibition ratio of Nav1.8 (Activity of inhibition) (human NaV1.8 ion channel) | IC50 (hERG ion channels) [µM] | Inhibition ratio on Nav1.5 (NaV1.5) [%] | IC50 (hERG ion channels; human, pH 7.4) [µM] | IC50 (hERG ion channels; read-out: IC50 for hERG inhibited by compounds, HEK293 cells, hERG tail current) [µM]
1 | Cc1cc(F)ccc1Oc1ccc(C(F)(F)F)cc1C(=O)Nc1ccc(F)c(C(N)C(N)=O)c1 (stereo not drawn) [Example 36] |  |  |  |  |  |  |  |  |  | > 80 |  |  |  |  |  |  | 10.5 | 
2 | Cc1cc(F)ccc1Oc1cc(C2CC2)c(C(F)(F)F)cc1C(=O)Nc1cnnc(OC[C@H](O)CO)c1 [Example 112] | 378 | 115000 | 8270 |  |  |  | 20 to 50 |  |  |  |  |  |  |  |  |  |  | 
3 | Cc1cc(F)ccc1Oc1cc(C2CC2)c(C(F)(F)F)cc1C(=O)Nc1ccnc(OC[C@H](O)CO)c1 [Example 104] | 306 | 58000 | 5140 | 1.5 | 2.8 | 1.3 | > 80 | <1 | 4.3 |  |  |  |  |  |  | <1 | 3.8 | 
4 | Cc1cc(F)ccc1Oc1ccc(C(F)(F)F)cc1C(=O)Nc1ccc(F)c(C(N)CCO)c1 (stereo not drawn) [Example 38] |  |  |  |  |  |  |  |  |  | 50 to 80 |  |  |  |  |  |  | 3 | 
5 | Cc1cc(F)ccc1Oc1ccc(C(F)(F)F)cc1C(=O)Nc1ccc(F)c(C(N)CC(N)=O)c1 (stereo not drawn) [Example 1, N-(3-(1,3-diamino-3-oxopropyl)-4-fluorophenyl)-2-(4-fluoro-2-methylphenoxy)-5-(trifluoromethyl) benzamide] |  |  |  |  |  |  |  |  |  |  |  |  |  |  |  |  |  | 3.2

More lines, main results first:

Row | half-life ([1]; rat) [min] | AUC ([1]; rat, read-out: AUC) [ng·h/mL] | Cmax ([1]; rat, read-out: Cmax) [ng/mL] | Inhibition ratio on Nav1.1 (NaV1.1) [%] | Inhibition ratio on Nav1.6 (NaV1.6) [%] | Inhibition ratio on Nav1.7 (NaV1.7) [%] | inhibition at 0.1 µM (human NaV1.8 ion channel; [2]) [%] | Inhibition ratio on Nav1.4 (NaV1.4) [%] | Inhibition ratio on Nav1.3 (NaV1.3) [%] | inhibition at 0.1 µM (human NaV1.8 ion channel; [3]) [%] | AUC [1] [ng·h/mL] | Cmax [1] [ng/mL] | T1/2 [1] [h] | Inhibition ratio of Nav1.8 (Activity of inhibition) (human NaV1.8 ion channel) | Compound | IC50 (hERG ion channels) [µM] | Inhibition ratio on Nav1.5 (NaV1.5) [%] | IC50 (hERG ion channels; human, pH 7.4) [µM] | IC50 (hERG ion channels; read-out: IC50 for hERG inhibited by compounds, HEK293 cells, hERG tail current) [µM]
6 | 180 | 114000 | 9570 | <1 | <1 | <1 | > 80 | <1 | 1.2 |  |  |  |  |  | Cc1cc(F)ccc1Oc1cc(C(F)(F)F)c(Cl)cc1C(=O)Nc1ccc(F)c(OC[C@H](O)CNC(=O)CO)c1 [Example 117] | 6 | 5.0 |  | 
7 |  |  |  | <1 | 1.7 | 8.7 |  | 3.6 | 2.2 |  | 13859 | 1176 | 2.2 | B (80 > B >= 50) | Cc1cc(F)ccc1Oc1cc(C(F)(F)F)ccc1C(=O)Nc1ccn(COP(=O)(O)O)c(=O)c1 [VX-150, reference compound] | 7 | 15.4 |  | 
8 | 114 | 44500 | 5190 | <1 | 5.1 | <1 | > 80 | 1.4 | <1 |  |  |  |  |  | Cc1cc(F)ccc1Oc1cc(C2CC2)c(C(F)(F)F)cc1C(=O)Nc1ccc(F)c(OC[C@H](O)CNC(=O)CO)c1 [Example 119] |  | 2.8 | 4.2 | 
9 | 702 | 154000 | 7640 | 4.8 | 8.3 | <1 | > 80 | 2.7 | 4.4 |  |  |  |  |  | Cc1cc(F)ccc1Oc1cc(C(F)(F)F)c(Cl)cc1C(=O)Nc1ccnc(OC[C@H](O)CO)c1 [Example 114, (R)-5-chloro-N-(2-(2,3-dihydroxypropoxy)pyridin-4-yl)-2-(4-fluoro-2-methylphenoxy)-4-(trifluoromethyl) benzamide] | 22.3 | 5.9 |  | 
10 | 522 | 42500 | 2570 | 1.2 | 2.6 | <1 | 50 to 80 | <1 | 3.7 |  |  |  |  |  | Cc1cc(F)ccc1Oc1cc(C(F)(F)F)c(Cl)cc1C(=O)Nc1cnnc(OC[C@H](O)CO)c1 [Example 116] |  | <1 | 15.6 | 
